Data: patent publication US5506204A, “Muramyl compounds for treatment of septic shock” (Peptech (UK) Limited, priority 1991, dated 1996)

Key:
[1] = system: TNFα; experiment: Example 8: TNF induction by muramyl peptides; type: in vivo, BALB/c mice; conditions: C. parvum-primed mice, 100 μg (equimolar) IP, LPS 25 μg 18 hours later; FIG. 6
Method: Here, the muramyl peptides tested were prototype MDP, GMDP, GMDP-A, GMDP-OBu, GMDP-Lys(St), GMDPA-Lys(St), GMDP-Benz and Thr-MDP.
(§1) BALB/mice (6 mice/groups) were injected intraperitoneally with 1.4 mg of dead C. parvum (0.2 ml of a 7 mg/ml suspension). Mice were subsequently (2 weeks later) treated with saline, MDP (100 μg) or analogue (100 μg) in 0.5 ml saline IP. The dose of each `MDP` was adjusted so that animals received equimolar amounts. LOS (25 μg) was injected 18 hours after the injection of MDP/analogue and the mice were subsequently sacrificed and bled out. TNF was determined by standard capture ELISA assay.

[2] = system: IL-1; experiment: Example 6: IL-1 production by peritoneal macrophages in response to LPS; type: in vivo, BALB/c mice; conditions: 2 injections 12 hours apart; macrophages stimulated with LPS 25 μg/ml 24 hours; thymocyte co-stimulation bioassay; FIG. 4
Method: Mice (BALB/c, female) 13-14 g, 5 animals in each group, received 2 injections of MDPs, 12 hours apart. The MDPs tested were MDP, muroctasin, MDP-Thr, MDP-OBu, GMDP-LL, GMDP-Lys(St) and GMDP-A. After the last injection, peritoneal cells were collected and the induction of IL-1 secretion by peritoneal macrophages was tested.
Macrophages were collected from the peritoneal cavity of mice by lavage with Hank's balanced salt solution. After washing the cells, they were then placed in wells of flat-bottomed 96-well plates and incubated at 37° C. for 1 hour in RPMI containing 5% FCS. The plates were then washed with warm RPMI to remove non-adhering cells. LPS (25 μg/ml) was then added in fresh culture medium and the plates were further cultured for 24 hours.
Production of IL-1 by peritoneal macrophages was assayed by thymocyte co-stimulation bioassay. Thymocytes from (CBA*C57BL.6)F1 mice (106), PHA (1 μg.ml), and the tested supernatant (50 μl) were placed into the wells of flat-bottomed 96-well plates. Thymocyte proliferation rate was measured 72 hours later by the incorporation of 3H TdR (1 μCi.well) during 6 hours prior to culture termination.

[3] = system: LPS-induced mortality in mice; experiment: Example 3: LPS-induced mortality in mice; type: in vivo, BALB/c mice; conditions: i.p. twice daily 100 μg or molar equivalent per mouse for 9 days before 300 μg LPS; mortality 2 days after LPS; FIG. 1
Method: 25 female BALB/c mice weighing 16-18 g each were divided into 5 groups, each group containing 5 animals. Each group of mice received twice-daily doses of saline, GMDP, GMDP-OBu, MDP or GMDP-A. The compounds were administered by intra-peritoneal injection in twice-daily doses of 100 μg or the molar equivalent per mouse during a 9-day period before the injection of 300 μg LPS per mouse. […] Thus GMDP and GMDP-A would be useful in the treatment and prevention of sepsis and septic shock, whereas MDP and GMDP-OBu would not.

[4] = Pyrogenicity; conditions: in vivo
Method: The expression "non pyrogenic or of low pyrogenicity" refers to a compound which induces an increase in temperature of an adult human of less than half a degree following the administration of 1 to 2 mg of the compound.
First, muramyl peptide compounds useful in the invention may be non-pyrogenic. Pyrogenicity may be simply measured by methods well known in the art.

[5] = system: serum TNF; experiment: Example 7: LPS induction of serum TNF; type: in vivo, BALB/c mice; conditions: C. parvum-primed mice, 100 μg (equimolar) IP, LPS 25 μg 18 hours later; FIG. 5
Method: as §1, with “In this experiment, 4 compounds were tested and these are: MDP, GMDP-A, GMDP-OBu and GMDP. Saline was administered to control mice. BALB/c mice” for “BALB/mice”, “mice/group)” for “mice/groups)”, “suspension.).” for “suspension).”, “LPS” for “LOS”, “and” for “and the”

Compound: N-acetyl-D-glucosaminyl-(β1-4)-N acetylmuramyl-L-alanyl-D-glutamine n-butyl ester [GMDP-OBu]
- effect on LPS-induced TNFα production [1]: consistently failed to synergise with LPS

Compound: CCCCOC(=O)[C@@H](CCC(N)=O)NC(=O)[C@H](C)NC(=O)[C@@H](C)O[C@H]1[C@H](O)[C@@H](CO)OC(O)[C@@H]1NC(C)=O (stereo partly drawn) [MDP-OBu, N-acetylmuramyl-L-alanyl-D-glutamine-α-N-butyl ester, reference compound]
- suppression of IL-1 production [2]: suppress the IL-1 response to LPS

Compound: N*-[N-acetyl-D-glucosaminyl-(β1-4)-N-acetylmuramyl-L-alanyl-D-isoglutaminyl]-N*-stearoyl-L-lysine [GMDP-Lys(St)]
- effect on LPS-induced TNFα production [1]: enhance LPS-induced TNF production
- suppression of IL-1 production [2]: suppress the IL-1 response to LPS

Compound: N-acetyl-D-glucosaminyl-(β1-4)-N-acetylmuramyl-L-alanyl-D-glutamicacid [GMDP-A]
- effect on LPS-induced mortality [3]: antagonise the effect of LPS
- pyrogenicity [4]: even less pyrogenic analogue
- effect on LPS induction of serum TNF [5]: pro-inflammatory, causing an enhancement of the TNF levels induced by LPS
- suppression of IL-1 production [2]: suppress the IL-1 response to LPS

Compound: N*-[N-Acetyl-D-glucosaminyl-(β1-4)-N-acetyl-muramyl-L-alanyl-γ-D-glutamyl]-N*-stearoyl-L-lysine [GMDPA-Lys(St)]
- effect on LPS-induced TNFα production [1]: enhance LPS-induced TNF production
